From patent US12624068B2, “Exon skipping by peptide nucleic acid derivatives” (OliPass Corporation, priority 2016, dated 2026)

Key:
mdx mice = test: Unscheduled death, sacrifice or lymphoma in chronically treated mdx mice; format: in vivo, mouse; conditions: DMD-ASO 1 50 pmole/Kg, DMD-ASO 2 or DMD-ASO 6 10 pmole/Kg, subcutaneous 2× per week, 66 weeks
From the text: [Grouping & ASO Treatment] Male mdx mice (7 weeks old) were randomly assigned to 4 groups of 0 (mdx negative control), 10, 50, and 200 pmole/Kg “DMD-ASO 1” based on individual grip strength scores by grip test. (N=12 per group) A satellite group of 12 male C57BL/6 mice (7 weeks old) was included in this study as the wild type negative control group for the full-length dystrophin expression level.
The 50 and 200 pmole/Kg group subcutaneously received “DMD-ASO 1” as dissolved in PBS, 2× per week until the final sacrifice in Week 43. In the meantime, the 10 pmole/Kg group subcutaneously received “DMD-ASO 1” initially 2× per week during Week 0 to 8, and 3× per week afterwards to increase the ASO exposure.
[Miscellaneous Findings] There were three cases of unscheduled sacrifice or death (Weeks 26, 39 and 43) in the mdx negative control group due to a large mass of muscular lymphoma developed most likely by chronic muscular inflammation.
“DMD-ASO 1”, “DMD-ASO 2” and “DMD-ASO 6” were evaluated for their physiological effects in male mdx mice by long term subcutaneous administration. In this evaluation the animals were not subjected to physical tests requiring muscular stress in order to keep the transcription of the dystrophin gene undisturbed by excessive muscular stimulation.
[Animals & Grouping] Male mdx mice (6 weeks old) were randomly assigned to 4 groups of the mdx negative control (no ASO treatment), “DMD-ASO 1” 50 pmole/Kg, “DMD-ASO 2” […], and “DMD-ASO 6” […] based on the body weight. (N=12-13 per group) 12 male C57BL/6 mice (6 weeks old) were adopted as the wild type (WT) negative control group.
[Injection Solutions & ASO Treatment] Aqueous mother stock solutions of the ASOs were serially diluted in PBS to prepare the injection solutions of 25 nM “DMD-ASO 1” for 50 pmole/Kg “DMD-ASO 1”, 5 nM “DMD-ASO 2” for “DMD-ASO 2” 10 pmole/Kg, and 5 nM “DMD-ASO 6” for “DMD-ASO 6” 10 pmole/Kg. The animals were subcutaneously administered with the injection solutions at 2 mL/Kg, 2× per week.

serum myoglobin = test: Serum myoglobin level in mdx mice; format: in vivo; conditions: DMD-ASO 1 50 pmole/Kg, DMD-ASO 2 or DMD-ASO 6 10 pmole/Kg, 2× per week, Week 66
Protocol: [Terminal Sacrifice] In Week 48, the animals were subjected to terminal sacrifice for blood sampling. The blood samples were analyzed for the serum level of CK (Creatine Kinase Activity Assay Kit, Cat. Number ab155901, Abcam) and myoglobin (Myoglobin ELISA Kit, Cat. Number ab210965, Abcam) to assess the degree of muscle degradation according to the manufacturer's instructions. Muscle tissues were analyzed by western blot for the full-length dystrophin.
[Terminal Sacrifice] All the survived animals were sacrificed for blood sampling in Week 66 post the grouping. The blood samples were subjected to ELISA assays for serum creatine kinase (CK) and serum myoglobin as described in “DMD Example 6”.

## Fethoc-C(12)TC-GG(6)C-TTA(6)-CC(1O2)T-GA(6)A-A(6)TT-NH2 (antisense CTCGGCTTACCTGAAATT; Fethoc N-cap, C-terminal amide, chemistry not fully specified) [DMD-ASO 6]
Mdx mice
  premature deaths (unscheduled death or sacrifice): three premature deaths
Serum myoglobin
  serum myoglobin level smaller than the mdx negative control group by: 68%
